Laboratory results reported in PubChem BioAssay AID1963429 (Molecular Pharmacology Branch, DTP, NCI, 2024).

Tested on: 126254-015-R-J1-PDC complex spheroid growth, % test/control
Assay: Anticancer human tumor 126254-015-R-J1-PDC patient-derived soft tissue sarcoma cell line growth inhibition [Asc]
Settings: for IC50: curve of first compound; for viability, T/C: stronger effect = lower value
How it was run: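 Tumor cells were grown as multicellular spheroids with stromal HUVEC and mesenchymal stem cells and treated singly or in combination. Concentrations fell in half-log steps from the clinical Cmax, or from 10 microM where none was known.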
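Also: spheroids exposed to compound for seven days.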
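For viability, T/C in this document: 100% = DMSO vehicle control wells.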

SMILES: CCN1C(C(=O)NC23CCC(C(=O)O)(CC2)CC3)C(c2cccc(Cl)c2F)C2(C(=O)Nc3cc(Cl)ccc32)C12CCCCC2 (stereo not given) + Cc1c(S(C)(=O)=O)c(-c2cc(F)cc(N3CCN(c4ccc(NS(=O)(=O)c5ccc(NC(CCN6CCC(C(=O)OCCCP(=O)(O)O)CC6)CSc6ccccc6)c(S(=O)(=O)C(F)(F)F)c5)cc4)CC3)c2)c(-c2ccc(Cl)cc2)n1C(C)C
- IC50 (second compound 0.1 µM): > 3 µM
- IC50 (second compound 0.316 µM): > 3 µM
- IC50 (second compound 1 µM): > 3 µM
- IC50 (second compound 3.16 µM): > 3 µM
- IC50 (second compound 10 µM): > 3 µM
- viability, T/C (second compound 0.1 µM, first compound 0.00949 µM): 90.7%
- viability, T/C (second compound 0.1 µM, first compound 0.03 µM): 85.1%
- viability, T/C (second compound 0.1 µM, first compound 0.0949 µM): 91.7%
- viability, T/C (second compound 0.1 µM, first compound 0.3 µM): 88.6%
- viability, T/C (second compound 0.1 µM, first compound 0.949 µM): 93.9%
- viability, T/C (second compound 0.1 µM, first compound 3 µM): 88.3%
- viability, T/C (second compound 0.316 µM, first compound 0.00949 µM): 83.3%
- viability, T/C (second compound 0.316 µM, first compound 0.03 µM): 82.4%
- viability, T/C (second compound 0.316 µM, first compound 0.0949 µM): 81.9%
- viability, T/C (second compound 0.316 µM, first compound 0.3 µM): 79.7%
- viability, T/C (second compound 0.316 µM, first compound 0.949 µM): 74.9%
- viability, T/C (second compound 0.316 µM, first compound 3 µM): 76.9%
- viability, T/C (second compound 1 µM, first compound 0.00949 µM): 86.1%
- viability, T/C (second compound 1 µM, first compound 0.03 µM): 84.4%
- viability, T/C (second compound 1 µM, first compound 0.0949 µM): 87.1%
- viability, T/C (second compound 1 µM, first compound 0.3 µM): 79.4%
- viability, T/C (second compound 1 µM, first compound 0.949 µM): 82.7%
- viability, T/C (second compound 1 µM, first compound 3 µM): 71.4%
- viability, T/C (second compound 3.16 µM, first compound 0.00949 µM): 76%
- viability, T/C (second compound 3.16 µM, first compound 0.03 µM): 83.8%
- viability, T/C (second compound 3.16 µM, first compound 0.0949 µM): 77.2%
- viability, T/C (second compound 3.16 µM, first compound 0.3 µM): 78.7%
- viability, T/C (second compound 3.16 µM, first compound 0.949 µM): 81.3%
- viability, T/C (second compound 3.16 µM, first compound 3 µM): 70.5%
- viability, T/C (second compound 10 µM, first compound 0.00949 µM): 82.3%
- viability, T/C (second compound 10 µM, first compound 0.03 µM): 86.5%
- viability, T/C (second compound 10 µM, first compound 0.0949 µM): 88.8%
- viability, T/C (second compound 10 µM, first compound 0.3 µM): 82.5%
- viability, T/C (second compound 10 µM, first compound 0.949 µM): 75.5%
- viability, T/C (second compound 10 µM, first compound 3 µM): 72.2%
